This is an account of results in US6156757A, “1,2,3,4-tetrahydro-benzofuro[3,2-C]pyridine derivatives” (Janssen Pharmaceutica N.V., priority 1997, dated 2000).

Test [1] deals with T1, cloned human α2A receptors (Homo sapiens, UniProt P08913).
T1 sequence (P08913 1-465): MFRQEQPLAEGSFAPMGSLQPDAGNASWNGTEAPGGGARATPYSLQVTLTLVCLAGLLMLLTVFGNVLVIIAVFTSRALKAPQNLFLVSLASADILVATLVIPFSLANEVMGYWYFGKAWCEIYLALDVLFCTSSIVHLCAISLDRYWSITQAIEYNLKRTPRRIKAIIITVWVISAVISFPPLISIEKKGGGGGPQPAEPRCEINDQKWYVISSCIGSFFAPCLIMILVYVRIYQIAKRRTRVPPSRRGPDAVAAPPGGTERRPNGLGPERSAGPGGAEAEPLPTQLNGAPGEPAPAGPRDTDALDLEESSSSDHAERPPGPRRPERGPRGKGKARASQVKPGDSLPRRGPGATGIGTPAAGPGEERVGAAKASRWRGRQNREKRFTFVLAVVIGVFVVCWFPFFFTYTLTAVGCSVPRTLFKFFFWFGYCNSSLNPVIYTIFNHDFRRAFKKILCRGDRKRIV
Nature of the test: In vitro binding affinity for α2A receptors (3H-rauwolscine competition binding). As to conditions: at a test concentration of 10^-8 M or less; CHO cell expressing cloned human α2A receptors. The procedure:
(§1) The interaction of the compounds of formula (I) with α2 receptors was assessed in in vitro radioligand binding experiments.
(§2) In general, a low concentration of a radioligand with a high binding affinity for a particular receptor is incubated with a sample of a tissue preparation enriched in a particular receptor or with a preparation of cells expressing cloned human receptors in a buffered medium. During the incubation, the radioligand binds to the receptor. When equilibrium of binding is reached, the receptor bound radioactivity is separated from the non-bound radioactivity, and the receptor bound activity is counted. The interaction of the test compounds with the receptor is assessed in competition binding experiments. Various concentrations of the test compound are added to the incubation mixture containing the receptor preparation and the radioligand. Binding of the radioligand will be inhibited by the test compound in proportion to its binding affinity and its concentration.
The radioligand used for α2A receptor binding is ^3 H-rauwolscine and the receptor preparation used is the Chinese Hamster Ovary (CHO) cell expressing cloned human α2A receptors.

The target of test [2] is T2, cloned human α2B receptors (Homo sapiens, UniProt P18089).
T2 construct: expressed in transfected cells; host or cells: CHO cells
T2 sequence (P18089 1-450): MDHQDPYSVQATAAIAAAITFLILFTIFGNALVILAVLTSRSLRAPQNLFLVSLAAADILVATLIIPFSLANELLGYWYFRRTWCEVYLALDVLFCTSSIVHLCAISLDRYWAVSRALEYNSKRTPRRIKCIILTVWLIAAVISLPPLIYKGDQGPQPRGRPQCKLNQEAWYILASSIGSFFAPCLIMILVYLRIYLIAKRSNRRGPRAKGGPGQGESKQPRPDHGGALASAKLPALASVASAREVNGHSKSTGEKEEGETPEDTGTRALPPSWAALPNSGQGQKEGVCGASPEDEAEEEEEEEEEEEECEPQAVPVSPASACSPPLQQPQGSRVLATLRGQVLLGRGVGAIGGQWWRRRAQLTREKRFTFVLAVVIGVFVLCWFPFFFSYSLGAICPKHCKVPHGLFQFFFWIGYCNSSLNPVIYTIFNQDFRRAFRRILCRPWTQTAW
In words: In vitro binding affinity for α2B receptors (3H-rauwolscine competition binding). As to conditions: at a test concentration of 10^-8 M or less; CHO cell expressing cloned human α2B receptors. As for the experimental part: as §1, §2
The radioligand used for α2B receptor binding is ^3 H-rauwolscine and the receptor preparation used is the CHO cell expressing cloned human α2B receptors.

Test [3] concerns the target T3, cloned human α2C receptors (Homo sapiens, UniProt P18825).
T3 construct: expressed in transfected cells; host or cells: CHO cells
T3 sequence (P18825 1-462): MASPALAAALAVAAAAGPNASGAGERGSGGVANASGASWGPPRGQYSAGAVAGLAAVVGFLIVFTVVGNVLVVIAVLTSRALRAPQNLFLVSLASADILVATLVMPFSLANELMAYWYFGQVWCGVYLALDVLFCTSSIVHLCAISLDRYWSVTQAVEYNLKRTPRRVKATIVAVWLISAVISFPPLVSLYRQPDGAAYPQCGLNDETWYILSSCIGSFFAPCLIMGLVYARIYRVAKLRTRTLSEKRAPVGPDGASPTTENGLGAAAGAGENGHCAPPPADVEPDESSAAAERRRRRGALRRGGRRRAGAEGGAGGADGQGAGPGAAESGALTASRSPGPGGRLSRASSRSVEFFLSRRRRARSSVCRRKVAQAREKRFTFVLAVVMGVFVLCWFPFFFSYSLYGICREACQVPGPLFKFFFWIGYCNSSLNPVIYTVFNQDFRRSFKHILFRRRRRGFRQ
In words: In vitro binding affinity for α2C receptors (3H-rauwolscine competition binding). The conditions noted are these: at a test concentration of 10^-8 M or less; CHO cell expressing cloned human α2C receptors.

The test system of the next test is α2 -adrenoceptor. In words: Xylazine-induced loss of righting reflex in rats. The class given is in vivo. The conditions noted are these: one hour before xylazine 15 mg/kg i.v., male rats, lowest tested dose at which at least 66% of animals showed no loss of righting reflex. As for the experimental part: This test is based upon the fact that centrally acting α2 -adrenoceptor antagonists reverse the loss of righting reflex induced by an intravenous injection of the α2 agonist xylazine. One hour before injection of xylazine (15 mg/kg, i.v.), male rats (200-250 g) were pretreated with a test compound (er os (p.o.) or subcutaneously (s.c.)) or solvent.

The structures appear in SMILES notation.

Broadly, the inhibition is the percentage by which the read-out fell short of the control. Read a low inhibition as little suppression. In test [1], `O=c1[nH]c2ccccc2c(=O)n1CCCCN1CCc2oc3ccccc3c2C1` [Compound 63] came in with an inhibition of more than 50%. The inhibition at up to 0.01 µM in test [2] and in test [3] was more than 50% in each case.

As to `Cc1nc2ccccn2c(=O)c1CCN1CCc2oc3ccccc3c2C1` [Compound 66], the inhibition in test [1] was more than 50%. Besides, the inhibition at up to 0.01 µM in test [2] and in test [3] was more than 50% throughout. For the same compound, in the test with α2 -adrenoceptor (s.c.), the “LAD in mg/kg (lowest active dose for xylazine antagonism)” value (shortened to “LAD in mg/kg”) turned out to be 0.63 mg/kg.

`O=c1[nH]c2ccccc2n1CCCN1CCc2oc3ccccc3c2C1` [Compound 53] yielded an inhibition in test [1] of more than 50%. Also, the inhibition at up to 0.01 µM in test [2] and in test [3] was more than 50% each time.

`O=c1[nH]c2ccccc2n1CCN1CCc2oc3ccccc3c2C1` [Compound 52] registered an inhibition in test [1] of more than 50%. The inhibition at up to 0.01 µM in test [2] and in test [3] was more than 50% each time. The “LAD in mg/kg” value with α2 -adrenoceptor (s.c.) was 10.00 mg/kg.

With `Cc1nc2n(C)c(C)cn2c(=O)c1CCN1CCc2oc3ccccc3c2C1` [Compound 30], the inhibition at up to 0.01 µM in test [2] was more than 50%. The “LAD in mg/kg” value in the test on α2 -adrenoceptor (s.c.) worked out at 2.50 mg/kg.

`CSc1nc(C)c(CCN2CCc3oc4ccccc4c3C2)c(=O)n1C` [Compound 56] had an inhibition at up to 0.01 µM in test [2] of more than 50%.

With `Cc1nc2ccc(Br)cn2c(=O)c1CCN1CCc2oc3ccccc3c2C1` [Compound 31], the inhibition at up to 0.01 µM in test [2] was more than 50%. For the same compound, in the test on α2 -adrenoceptor (s.c.), the “LAD in mg/kg” value amounted to 0.16 mg/kg.

As to `O=c1c(CCN2CCc3oc4ccccc4c3C2)c(-c2ccccc2)nc2n1CCCC2` [Compound 10], in test [1], the inhibition was more than 50%. Besides, the inhibition at up to 0.01 µM in test [2] and in test [3] was more than 50% in each case. In the test with α2 -adrenoceptor (s.c.), the “LAD in mg/kg” value turned out to be 10.00 mg/kg.

On to `Cc1nc2c(C)cccn2c(=O)c1CCN1CCc2oc3ccccc3c2C1` [Compound 33], for which, in test [1], the inhibition was more than 50%. Further, the inhibition at up to 0.01 µM in test [2] and in test [3] was more than 50% throughout. The “LAD in mg/kg” value in the test on α2 -adrenoceptor (s.c.) is given as 10.00 mg/kg.

For the compound `Cc1nc2sc3ccccc3n2c(=O)c1CCN1CCc2oc3ccccc3c2C1` [Compound 62], in test [1], the inhibition is more than 50%. Moreover, the inhibition at up to 0.01 µM in test [2] and in test [3] was more than 50% in each case. Further, in the test with α2 -adrenoceptor (p.o.), the “LAD in mg/kg” value stood at 10.00 mg/kg.

With `c1ccc2sc(NCCCCCN3CCc4oc5ccccc5c4C3)nc2c1` [Compound 48], in test [1], the inhibition was more than 50%. In test [3], this compound came in with an inhibition at up to 0.01 µM of more than 50%. Further, in the test with α2 -adrenoceptor (s.c.), the “LAD in mg/kg” value came out at 10.00 mg/kg.
